This is an account of results in PMC12287680, “Efficient Acyloxymethylation of Psilocin and Other Tryptamines Yielding ACOM Prodrugs for Psychedelic‐Assisted Therapy” (Archiv Der Pharmazie, 2025).

SMILES strings stand for the structures. Where a name gives a salt, the structure may show the parent alone. Marks after values point to notes of the source that are not given here.

A short description of data set [1]: Half-lives in PBS at 80°C (nonspecific hydrolysis). The format is physicochemical. The settings on record: for half-life at 50 µM: pH 7.3, PBS, 80°C, 5·10^−5 M, footnote: no replicates; for stability in buffer compared with plasma: buffer at 80°C versus plasma at 37°C, same concentration. The method, then: As a measure of the drug release rate in the systemic blood circulation, we determined the half‐lives of 15, 16, and 23–26 in pooled human plasma. […] This illustrates that the drug release kinetics in human plasma are highly dependent upon the chosen acyl residue, which allows for tailoring the prodrug's pharmacokinetic profile to the therapeutic requirements. To assess the contribution of nonspecific hydrolysis to the observed kinetics, we incubated the prodrugs at the same concentration in the buffer used to dilute the plasma samples.
(§1) The kinetic studies were carried out by following the loss of substrate under the indicated conditions using HPLC‐UV. Pooled human plasma was obtained commercially (Biowest, France), while human saliva was freshly collected with the written informed consent of the saliva donors. In a typical run, the reaction was initiated by adding the prewarmed medium to a prewarmed aliquot of a 5 mM stock solution of the analyte in DMSO, resulting in a final concentration of 5·10^−5 M. A volume of 100 µL samples of the reaction mixture were taken at suitable intervals, and the reaction was either stopped by cooling to –20°C (PBS) or by protein precipitation using 2:1 (v/v) acetonitrile (saliva, plasma). Precipitates were removed by centrifugation and decantation prior to HPLC analysis. Pseudo‐first‐order rate constants for the observed degradation were determined from the slope of linear plots of ln(peak area) versus time. More detailed descriptions are provided in the Supporting Information.

Data set [2] can be described thus: Half-lives in human saliva at 37°C. The format is in vitro ADME. The settings on record: fresh resting whole human saliva, mean of three measurements with fresh samples of three individuals, 5·10^−5 M, read-out: Half‐lives t 1/2 at 37°C in human Saliva. As to the method:
Finally, we studied the stability of the compounds in human saliva. […] In line with the literature, the stability of a given compound in human saliva varied considerably between subjects (Figure 7).
as §1

Details of data set [3]: method as in earlier work. The settings on record: rats, ref 10b, cited from earlier work.
A short description of data set [4]: Half-lives in pooled human plasma at 37°C. The settings on record: for half-lives t1/2 in human plasma (v/v) at 37°C: 100% plasma, [prodrug]0 =50 µM. The format is in vitro ADME. As to the method: As a measure of the drug release rate in the systemic blood circulation, we determined the half‐lives of 15, 16, and 23–26 in pooled human plasma. […] To assess the contribution of nonspecific hydrolysis to the observed kinetics, we incubated the prodrugs at the same concentration in the buffer used to dilute the plasma samples.
as §1
^a The release kinetics of the prodrugs were evaluated in vitro in analogy to the precedent literature.^[1] […] Pooled human blood plasma (Biowest, France) and sterile Dulbecco’s phosphate buffered saline (PBS) pH 7.3 (Sigma-Aldrich, Germany) were used for all experiments. In short, prewarmed (37°C) human plasma and prewarmed (37°C) prodrug (5 mM stock in DMSO) were gently mixed, which afforded a 50 µM solution of the prodrug in human plasma. Incubation was continued at 37°C, and 100 µL samples of the mixture were taken at appropriate time intervals. The samples were immediately quenched with acetonitrile (2:1), centrifuged, decanted, and analyzed via HPLC-UV. Half-lives were determined assuming first-order kinetics; specific values are the mean of triplicates ± standard deviation. For more details, please refer to the SI.

Data set [5] is described as follows: Passive membrane permeability across an artificial membrane. The format is in vitro ADME. The settings on record: for Papp: PAMPA, pH 7.4, read-out: Passive membrane permeability Pe. An excerpt: As expected, all tested prodrugs have a high propensity for passive passage across an artificial membrane at pH 7.4 (≥ 8·10^−6 cm/s). […] The loss of the intramolecular hydrogen bond between the phenolic hydroxy group and the tertiary amino group upon O‐substitution appears to decrease the membrane permeability of the prodrugs in comparison to the parent drug. This effect is apparently not entirely compensated by the ACOM promoiety, which in itself is not completely apolar due to the acetal and ester oxygens. The intramolecular hydrogen bond may reduce the polarity of 4‐hydroxytryptamines by introducing a conformational restraint and thereby favoring conformations with a smaller polar surface area and a lower dipole moment and by decreasing hydrogen bonding to the aqueous solvent. In addition, the intramolecular hydrogen bond in 4‐hydroxytryptamines lowers the pK a of the amine and therefore shifts the protonation equilibrium toward the neutral species. The higher proportion of the uncharged species in 4‐hydroxytryptamines compared with their O‐substituted congeners further increases the difference in passive membrane permeability.
On the technique in general: In PAMPA a lipid-coated filter parts donor from acceptor wells.

The conditions of data set [6]: pH 7.4; cited from earlier work.
The conditions of data set [7]: cited from earlier work.
The conditions of data set [8]: in DMSO; cited from earlier work.
The mark [9] stands for this setting: 100% (undiluted) pooled human plasma, 37°C, 100% pooled human plasma, 5·10^−5 M.
The mark [10] stands for this setting: 10% pooled human plasma in PBS, pH 7.3, 37°C, 10% pooled human plasma diluted with PBS, 5·10^−5 M.
Where [11] appears, read: diluted pooled human plasma, pH 7.3, even in diluted human plasma, read-out: half‐lives in human plasma.

Consider `CC(=O)Oc1ccccc1C(=O)O` [ASA, Acetylsalicylic acid, reference compound], for which the half-life at 50 µM is 27.9 ± 0.3 min in data set [1] and greater than 60 min in data set [2].

For `CN(C)CCc1c[nH]c2cccc(OCOC(=O)C(C)(C)C)c12` [Compound 2], in data set [3] (peroral dosing), the “detected systemic psilocin level” value is on record as “relatively low”. Further, in data set [3], the “prodrug behaviour upon peroral dosing” value is on record as “acts as a psilocin prodrug”.

On to `CCN(C)CCc1cn(C(=O)OCc2ccccc2)c2cccc(O)c12` [Compound 15], for which the half-life at 50 µM in data set [4] (setting [9]) is greater than 5700 min. Also, in data set [4] (37°C), the “half-lives t1/2 in human plasma (v/v) at 37°C” value (from here on “half-lives t1/2 in human plasma”) is recorded as > 5700 (100%) min; the “drug release in undiluted human plasma during the observation period” value (“drug release” for short) is “Neither the N‐carbamates 15 and 16 nor the sterically hindered pivaloyloxymethyl ethers 23 and 25 showed significant drug release”. The half-life at 50 µM in data set [1] came out at 136 ± 4 min.

For the compound `CN(C)CCc1cn(C(=O)OCc2ccccc2)c2cccc(O)c12` [Compound 16, 1‐Benzyloxycarbonyl‐4‐Hydroxy‐N,N‐Dimethyltryptamine], in data set [4] (setting [9]), the half-life at 50 µM was greater than 5700 min. In data set [4] (37°C), the “half-lives t1/2 in human plasma” value was > 5700 (100%) min; the “drug release” value was “Neither the N‐carbamates 15 and 16 nor the sterically hindered pivaloyloxymethyl ethers 23 and 25 showed significant drug release”. In data set [1], the half-life at 50 µM was 184 ± 5 min.

In the case of `CCN(C)CCc1c[nH]c2cccc(OCOC(=O)C(C)(C)C)c12` [Compound 23], the figures for the half-life at 50 µM in data set [4] (setting [9]), in data set [1] and in data set [2] were greater than 240 min, 534 ± 12 min and less than 20 min, respectively. Besides, the “half-lives t1/2 in human plasma” value in data set [4] (37°C) is > 240 (100%) min. In data set [4] (37°C), the “drug release” value is “Neither the N‐carbamates 15 and 16 nor the sterically hindered pivaloyloxymethyl ethers 23 and 25 showed significant drug release”. Besides, the Papp in data set [5] is 9.7 ± 0.6 ×10⁻⁶ cm/s. For the same compound, in data set [5] (pH 7.4), the “Passive membrane permeability R (%) (mass retention)” value (“Passive membrane permeability R (%)” below) is recorded as 2%.

As for `CCCC(=O)OCOc1cccc2[nH]cc(CCN(C)CC)c12` [Compound 24], the half-life at 50 µM in data set [4] (setting [10]) is 4.2 ± 0.1 min; in data set [4] (setting [11]) it was less than 5 min; in data set [1] it was 73.3 ± 1.2 min; in data set [2] it was less than 10 min. In addition, the “stability in buffer compared with plasma” value in data set [1] was “significantly more stable in buffer than in plasma”. In addition, the Papp in data set [5] stood at 8 ± 0.3 ×10⁻⁶ cm/s. Moreover, the “Passive membrane permeability R (%)” value in data set [5] (pH 7.4) was 6%.

In the case of `CN(C)CCc1c[nH]c2cccc(OCOC(=O)C(C)(C)C)c12` [Compound 25], the half-life at 50 µM in data set [4] (setting [9]) is greater than 240 min; in data set [1], 458 ± 23 min; in data set [2], less than 20 min. The “half-lives t1/2 in human plasma” value in data set [4] (37°C) is > 240 (100%)^b min. In data set [4] (in vitro), the “chemical and plasma stability, in words” value was “high chemical and plasma stability”. Further, the “drug release” value in data set [4] (37°C) is “Neither the N‐carbamates 15 and 16 nor the sterically hindered pivaloyloxymethyl ethers 23 and 25 showed significant drug release”. In addition, the Papp in data set [5] was 9.1 ± 0.5 ×10⁻⁶ cm/s. In data set [5] (pH 7.4), the “Passive membrane permeability R (%)” value was found to be 4%.

Turning to `CCCC(=O)OCOc1cccc2[nH]cc(CCN(C)C)c12` [Compound 26, 4‐n‐Butanoyloxymethyloxy‐N,N‐Dimethyltryptammonium Fumarate], the half-life at 50 µM is 3.5 ± 0.8 min in data set [4] (setting [10]); 0.48 ± 0.1 min in data set [4] (setting [9]); less than 5 min in data set [4] (setting [11]); 58.6 ± 3.5 min in data set [1]; less than 10 min in data set [2]. In addition, in data set [1], the “stability in buffer compared with plasma” value was “significantly more stable in buffer than in plasma”. The Papp in data set [5] is 8.1 ± 0.8 ×10⁻⁶ cm/s. Further, in data set [5] (pH 7.4), the “Passive membrane permeability R (%)” value was 7 ^e %.

Turning to `CCN(C)CCc1c[nH]c2cccc(O)c12` [Compound 30, reference compound], in data set [5] (pH 7.4), the “Passive membrane permeability Pe” value was 11 ± 1 10^−6cm/s; the “Passive membrane permeability R (%)” value turned out to be 29%; the “mass retention (R%), in words” value is reported as “remarkably high”. Further, the “membrane permeability, ranking” value in data set [5] (pH 7.4, compared with the prodrugs) is “highest membrane permeability”.

Regarding `CN(C)CCc1c[nH]c2cccc(OP(=O)(O)O)c12` [psilocybin], in data set [6], the logD7.4 is given as −0.89.

Take `CNS(=O)(=O)Cc1ccc2[nH]cc(CCN(C)C)c2c1` [sumatriptan]: in data set [7], the log partition coefficient (logP) (in general, a log measure of how a compound divides between an organic and an aqueous phase) is reported as 0.93. In addition, the logD7.4 in data set [6] is −1.3. The “sulfonamide pKa” value in data set [8] is on record as ~ 17.5.
